Data reported in ChEMBL document CHEMBL1201862, “PubChem BioAssay data set” (2004).
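Dose response: 5 concentrations. Exposure: 48 h. Format: 96-well plates. Endpoint: linear interpolation; highest concentration if not reached. GI50 marks 50% less growth.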 Calls of active or inactive are those of the source. Cut-off read from the data, not from the text of the source: active = GI50 up to about 1.1 µM and inactive = higher.

How the values were obtained:
Assay in all cases: NCI-60 cell line screen, 48 h
A498 = tested on: A498
DU-145 = tested on: DU-145
HCC 2998 = tested on: HCC 2998
HT-29 = tested on: HT-29
K562 = tested on: K562
MCF7 = tested on: MCF7
MDA-N = tested on: MDA-N
NCI-H23 = tested on: NCI-H23
NCI-H460 = tested on: NCI-H460
SF-268 = tested on: SF-268
SK-MEL-28 = tested on: SK-MEL-28
SK-MEL-2 = tested on: SK-MEL-2
SK-MEL-5 = tested on: SK-MEL-5
SK-OV-3 = tested on: SK-OV-3
SNB-19 = tested on: SNB-19
SNB-75 = tested on: SNB-75
COLO 205 = tested on: COLO 205
NCI/ADR-RES = tested on: NCI/ADR-RES
OVCAR-4 = tested on: OVCAR-4

Measured: GI50

CC1(C)C/N=C/C(C)(OCc2ccccc2)C(=O)NC(C)(C)C/N=C/C(C)(OCc2ccccc2)C(=O)N1 (stereo unspecified)
inactive: A498 > 10 µM | DU-145 > 10 µM | HCC 2998 > 10 µM | HT-29 > 10 µM | K562 > 10 µM | MCF7 > 10 µM | MDA-N > 10 µM | NCI-H23 > 10 µM | NCI-H460 > 10 µM | SF-268 > 10 µM | SK-MEL-28 > 10 µM | SK-MEL-2 > 10 µM | SK-MEL-5 > 10 µM | SK-OV-3 > 10 µM | SNB-19 > 10 µM | SNB-75 3.82 µM

O=C(NCC(C(=O)OCc1ccccc1)C(=O)OCc1ccccc1)OCc1ccccc1
inactive: COLO 205 > 100 µM | DU-145 > 100 µM | HCC 2998 > 100 µM | HT-29 > 100 µM | K562 60.1 µM | MCF7 49.3 µM | MDA-N > 100 µM | NCI-H23 59.3 µM | NCI-H460 94.6 µM | NCI/ADR-RES 42.6 µM | SF-268 > 100 µM | SK-MEL-28 > 100 µM | SK-MEL-2 > 100 µM | SK-MEL-5 35.9 µM | SK-OV-3 > 100 µM | SNB-19 > 100 µM | SNB-75 > 100 µM

COc1ccccc1C1Nn2c(nc3ccccc3c2=O)N1c1ccc(C)cc1 (stereo unspecified)
inactive: COLO 205 6.65 µM | DU-145 11 µM | HCC 2998 3.8 µM | HT-29 7.78 µM | K562 7.83 µM | MCF7 6.49 µM | MDA-N 5.83 µM | NCI-H23 10.9 µM | NCI-H460 3.37 µM | NCI/ADR-RES 9.06 µM | OVCAR-4 3.08 µM | SF-268 6.85 µM | SK-MEL-28 5.94 µM | SK-MEL-2 11.4 µM | SK-MEL-5 7.45 µM | SK-OV-3 3.72 µM | SNB-19 6.59 µM | SNB-75 14.9 µM

Cc1cc(C)c2c(=O)n(CC(O)CN(Cc3ccccc3)CC(O)Cn3sc4nc(C)cc(C)c4c3=O)sc2n1 (stereo unspecified)
inactive: COLO 205 7.73 µM | DU-145 17.9 µM | HCC 2998 18.8 µM | HT-29 19.6 µM | K562 24.2 µM | MCF7 17.6 µM | MDA-N 17.9 µM | NCI-H23 18 µM | NCI-H460 19.7 µM | NCI/ADR-RES 22.4 µM | OVCAR-4 18.1 µM | SF-268 17.1 µM | SK-MEL-28 27.8 µM | SK-MEL-2 17.7 µM | SK-MEL-5 16.4 µM | SK-OV-3 23.2 µM | SNB-19 18.5 µM | SNB-75 15.5 µM

CCOP(=O)(OCC)OC1CC(n2cc(C)c(=O)n(C)c2=O)OC1CO[Si](C)(C)C(C)(C)C (stereo unspecified)
inactive: COLO 205 > 100 µM | DU-145 > 100 µM | HCC 2998 62.4 µM | HT-29 > 100 µM | K562 48.4 µM | MCF7 73.1 µM | MDA-N > 100 µM | NCI-H23 > 100 µM | NCI-H460 58.3 µM | NCI/ADR-RES 46.5 µM | OVCAR-4 > 100 µM | SF-268 > 100 µM | SK-MEL-28 > 100 µM | SK-MEL-2 > 100 µM | SK-MEL-5 58.9 µM | SK-OV-3 > 100 µM | SNB-19 > 100 µM | SNB-75 75.9 µM

O=P1(c2ccccc2)C(c2ccccc2)CCC1c1ccccc1 (stereo unspecified)
inactive: COLO 205 66.7 µM | DU-145 > 100 µM | HCC 2998 > 100 µM | K562 10.8 µM | MCF7 > 100 µM | MDA-N 15.1 µM | NCI-H23 48.4 µM | SF-268 > 100 µM | SK-MEL-28 > 100 µM | SK-MEL-5 37.2 µM | SK-OV-3 40.9 µM | SNB-19 > 100 µM | SNB-75 57.3 µM

Cn1c(N)nc(-c2ccc(Cl)cc2)c1SSc1c(-c2ccc(Cl)cc2)nc(N)n1C
inactive: A498 14.3 µM | COLO 205 1.94 µM | DU-145 12.8 µM | HCC 2998 7.82 µM | HT-29 2.3 µM | K562 2.36 µM | MDA-N 1.77 µM | NCI-H23 1.63 µM | NCI-H460 3.45 µM | NCI/ADR-RES 2.1 µM | OVCAR-4 1.75 µM | SF-268 2.77 µM | SK-MEL-28 2.02 µM | SK-MEL-2 17.8 µM | SK-MEL-5 1.82 µM | SK-OV-3 14.4 µM | SNB-19 14.7 µM | SNB-75 7.67 µM

NS(=O)(=O)c1ccc(-c2ccc([As](=O)(O)O)cc2)cc1
inactive: COLO 205 > 100 µM | DU-145 > 100 µM | HT-29 > 100 µM | K562 > 100 µM | MCF7 > 100 µM | MDA-N > 100 µM | NCI-H23 > 100 µM | NCI-H460 > 100 µM | NCI/ADR-RES > 100 µM | OVCAR-4 > 100 µM | SF-268 > 100 µM | SK-MEL-28 > 100 µM | SK-MEL-2 > 100 µM | SK-MEL-5 > 100 µM | SK-OV-3 > 100 µM | SNB-19 > 100 µM | SNB-75 11.6 µM

O=C(c1ccc(Br)cc1)n1c2ccc(Br)cc2c2nc3ccccc3nc21
inactive: COLO 205 > 100 µM | DU-145 > 100 µM | HCC 2998 > 100 µM | HT-29 > 100 µM | K562 > 100 µM | MCF7 > 100 µM | MDA-N > 100 µM | NCI-H23 > 100 µM | NCI-H460 > 100 µM | NCI/ADR-RES > 100 µM | OVCAR-4 > 100 µM | SF-268 > 100 µM | SK-MEL-28 > 100 µM | SK-MEL-2 > 100 µM | SK-MEL-5 > 100 µM | SNB-19 > 100 µM | SNB-75 76.7 µM

N=C(N)NS(=O)(=O)c1ccc(Nc2c3ccccc3nc3ccc(C(=O)Nc4ccc(S(N)(=O)=O)cc4)cc23)cc1
inactive: COLO 205 > 100 µM | DU-145 > 100 µM | HCC 2998 > 100 µM | HT-29 > 100 µM | K562 > 100 µM | MCF7 > 100 µM | MDA-N > 100 µM | NCI-H23 > 100 µM | NCI-H460 > 100 µM | NCI/ADR-RES > 100 µM | OVCAR-4 > 100 µM | SF-268 > 100 µM | SK-MEL-28 > 100 µM | SK-MEL-2 > 100 µM | SK-MEL-5 > 100 µM | SK-OV-3 > 100 µM | SNB-19 > 100 µM | SNB-75 > 100 µM

S=C1N(/N=C/c2c3ccccc3cc3ccccc23)C(=N\c2ccccc2)/C(=N/c2ccccc2)N1c1ccccc1
inactive: COLO 205 > 100 µM | DU-145 > 100 µM | HCC 2998 > 100 µM | HT-29 > 100 µM | K562 > 100 µM | MCF7 > 100 µM | MDA-N > 100 µM | NCI-H23 > 100 µM | NCI-H460 > 100 µM | NCI/ADR-RES > 100 µM | SF-268 > 100 µM | SK-MEL-28 > 100 µM | SK-MEL-2 > 100 µM | SK-MEL-5 > 100 µM | SK-OV-3 > 100 µM | SNB-19 > 100 µM

Cc1ccc(O)c(C2=NNC(c3cccc(Br)c3)C2)c1 (stereo unspecified)
inactive: COLO 205 > 100 µM | DU-145 81.3 µM | HCC 2998 60.8 µM | HT-29 64.1 µM | K562 38 µM | MCF7 33.8 µM | MDA-N 28.8 µM | NCI-H23 76.6 µM | NCI-H460 33.9 µM | NCI/ADR-RES 48.1 µM | SF-268 71 µM | SK-MEL-2 > 100 µM | SK-MEL-5 71.3 µM | SK-OV-3 34.3 µM | SNB-19 23 µM
